The text below walks through data of patent publication US11401510B2, “Generation of airway basal stem cells from human pluripotent stem cells” (TRUSTEES OF BOSTON UNIVERSITY, priority 2020, dated 2022).

For assay [1], the target named is CFTR (F508del) in ALI cultures generated from CF iPSCs (Homo sapiens, UniProt P13569, DEL508-508). Nature of the assay: Ussing chamber analysis of CFTR-dependent current, CF ALI cultures. The settings on record: CF (F508del homozygous) iPSC-derived ALI cultures, after amiloride. In kind it is cell-based.
CFTR (F508del) in ALI cultures generated from CF iPSCs, sequence (P13569 with tags, fused parts or gaps DEL508-508): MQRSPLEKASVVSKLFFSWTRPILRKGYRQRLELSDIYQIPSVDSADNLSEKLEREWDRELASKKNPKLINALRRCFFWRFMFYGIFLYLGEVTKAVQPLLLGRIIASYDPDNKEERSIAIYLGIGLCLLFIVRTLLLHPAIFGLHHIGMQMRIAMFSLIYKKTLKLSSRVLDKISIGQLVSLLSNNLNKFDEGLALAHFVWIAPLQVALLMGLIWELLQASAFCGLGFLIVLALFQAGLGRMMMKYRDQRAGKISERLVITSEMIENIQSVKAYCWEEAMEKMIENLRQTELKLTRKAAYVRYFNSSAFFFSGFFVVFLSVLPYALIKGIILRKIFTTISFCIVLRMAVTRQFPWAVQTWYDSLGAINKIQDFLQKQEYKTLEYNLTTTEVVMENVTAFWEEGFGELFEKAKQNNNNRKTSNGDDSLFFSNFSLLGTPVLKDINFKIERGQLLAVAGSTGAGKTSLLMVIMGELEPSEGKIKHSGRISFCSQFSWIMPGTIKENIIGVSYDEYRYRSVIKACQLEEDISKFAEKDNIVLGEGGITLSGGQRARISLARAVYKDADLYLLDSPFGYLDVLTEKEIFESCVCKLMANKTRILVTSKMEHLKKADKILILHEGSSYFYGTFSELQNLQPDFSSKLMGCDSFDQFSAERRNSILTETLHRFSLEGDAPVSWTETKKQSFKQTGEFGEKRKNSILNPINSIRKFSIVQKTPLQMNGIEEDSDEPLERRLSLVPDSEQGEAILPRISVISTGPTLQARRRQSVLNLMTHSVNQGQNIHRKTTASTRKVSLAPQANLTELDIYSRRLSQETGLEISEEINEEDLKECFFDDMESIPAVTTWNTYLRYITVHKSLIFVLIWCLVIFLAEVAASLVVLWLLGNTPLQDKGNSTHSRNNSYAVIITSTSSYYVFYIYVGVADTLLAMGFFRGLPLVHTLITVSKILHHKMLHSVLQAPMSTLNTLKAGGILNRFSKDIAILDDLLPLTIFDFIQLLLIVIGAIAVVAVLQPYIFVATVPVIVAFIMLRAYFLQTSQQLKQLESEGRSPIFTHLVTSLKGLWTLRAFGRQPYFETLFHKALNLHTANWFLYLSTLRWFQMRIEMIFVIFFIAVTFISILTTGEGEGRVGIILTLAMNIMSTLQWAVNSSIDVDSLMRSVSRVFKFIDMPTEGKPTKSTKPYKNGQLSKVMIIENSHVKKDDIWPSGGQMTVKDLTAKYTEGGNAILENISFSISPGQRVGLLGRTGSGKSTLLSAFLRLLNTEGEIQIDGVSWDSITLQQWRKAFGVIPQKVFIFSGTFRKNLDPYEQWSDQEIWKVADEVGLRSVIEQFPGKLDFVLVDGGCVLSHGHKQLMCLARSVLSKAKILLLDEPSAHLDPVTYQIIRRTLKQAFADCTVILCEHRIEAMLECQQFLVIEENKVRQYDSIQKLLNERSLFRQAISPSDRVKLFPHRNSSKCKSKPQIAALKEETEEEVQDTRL
Protocol: Pre- and post-gene corrected paired syngeneic iPSC clones (hereafter CF and Corr CF) were differentiated into iBCs in the present protocol, sorted using the present antibody-based-method and generated ALI cultures composed of BCs, SCs, and MCCs (FIG. 6A). CFTR-dependent current, representing ion flux regulated by apically localized CFTR, was measured using the gold-standard Ussing chamber approach.
Ussing chamber experiments were performed on EasyMount Ussing Chamber Systems at voltage clamp mode, and Acquiciliare™ & Analyze software (Physiologic Instruments) was employed to record and analyze data. […] Subsequently, 10 pM forskolin (Sigma) were administered to stimulate chloride current. […] For BU3 NGPT derived ALI, 5 pM VX-770, CFTR modulator, was treated subsequent to forskolin. The resulting change in short circuit current was calculated as DIsc. The data were expressed in mean±SD.
Assay [2] concerns the target CFTR in ALI cultures generated from corrected CF iPSCs (Corr CF) (Homo sapiens, UniProt P13569). Nature of the assay: Ussing chamber analysis of CFTR-dependent current, corrected CF ALI cultures. The conditions noted are these: Corr CF (gene-corrected) iPSC-derived ALI cultures, after amiloride; mean±SD, n=3.
Protocol: For CF modeling, gene editing was used to correct the F508del CFTR mutation. Pre- and post-gene corrected paired syngeneic iPSC clones (hereafter CF and Corr CF) were differentiated into iBCs in the present protocol, sorted using the present antibody-based-method and generated ALI cultures composed of BCs, SCs, and MCCs (FIG. 6A). CFTR-dependent current, representing ion flux regulated by apically localized CFTR, was measured using the gold-standard Ussing chamber approach.
Ussing chamber experiments were performed on EasyMount Ussing Chamber Systems at voltage clamp mode, and Acquiciliare™ & Analyze software (Physiologic Instruments) was employed to record and analyze data. Briefly, Transwell inserts were mounted into chambers and bathed in low chloride Ringer's solution (1.2 mM NaCl, 140 mM Na-gluconate, 25 mM NaHCO3, 3.33 mM KH2PO4, 0.83 mM K2HPO4, 1.2 mM CaCl2, 1.2 mM MgCl2, 10 mM glucose) at apical and Ringer's solution (120 mM NaCl, 25 mM NaHCO3, 3.33 mM KH2PO4, 0.83 mM K2HPO4, 1.2 mM CaCl2, 1.2 mM MgCl2, 10 mM glucose) at basolateral side of monolayer. After base line is stabilized, 100 pM amiloride (Sigma) applied to both sides of the chamber to carry out complete inhibition of ENaC (Epithelial sodium channel). Subsequently, 10 pM forskolin (Sigma) were administered to stimulate chloride current. […] The resulting change in short circuit current was calculated as DIsc. […]
Assay [3] concerns BU3 NGPT iBC-derived ALI cultures. The assay can be described thus: Mucus cell metaplasia model: IL-13 treatment of iBC-derived ALI cultures. In kind it is cell-based, human. The protocol:
Human airway epithelium has diverse biologic and physiologic roles, some of which are uniquely affected by disease. it was tested whether iBC-derived ALI cultures could recapitulate features of the three airway disorders with distinct epithelial characteristics: (1) mucus cell metaplasia in asthma; (2) abnormal ion-flux seen in CF; and (3) defective ciliary beating seen in PCD. First, it was tested whether iBC-derived ALI cultures could recapitulate the mucus cell metaplasia seen in asthma. Interleukin-13 (IL-13) is an inflammatory cytokine in asthma and can induce mucus metaplasia. A number of studies, in mice and primary human airway epithelial cell cultures, have found IL-13 leads to increased MUC5AC+ cell numbers via the activation of STAT6 and SPDEF, at the expense of MCCs and MUC5B+ cell frequencies (Kondo et al., 2002; Seibold, 2018; Woodruff et al., 2009).
BU3 NGPT iBSC-derived ALI culture was prepared as described above. Ten days after air-lifted, cells were treated with 10 ng/ml IL-13 and cultured for 10 days prior to the assessments. Mucus cell metaplasia was assessed by immunofluorescence staining for the increment of MUC5AC expressing cells or gene expression changes via qRT-PCR. Quantification of MUC5AC+ cells was performed using ImageJ™ software by manually counting MUC5AC+ cells in 3 randomly selected fields per well (n=3 wells per condition).
RNA was extracted by first lysing cells in QIAzol (QIAGEN) and subsequently using the RNeasy Mini kit (QIAGEN). Taqman Fast Universal PCR mastermix (Applied Biosystems) were used to reverse transcribe RNA into cDNA and analyzed during 40 cycles of real time PCR using Taqman probes (Applied Biosystems). Relative gene expression, normalized to 18S control, was calculated as fold change in 18S-normalized gene expression, over baseline, using the 2(-DDCT) method. Baseline, defined as fold change=1, was set to undifferentiated iPSCs. If undetected, a cycle number of 40 was assigned to allow fold change calculations.

[4] abbreviates: IL-13 treated vs untreated, qRT-PCR.

CFTR in ALI cultures generated from corrected CF iPSCs (Corr CF), sequence (P13569 whole entry): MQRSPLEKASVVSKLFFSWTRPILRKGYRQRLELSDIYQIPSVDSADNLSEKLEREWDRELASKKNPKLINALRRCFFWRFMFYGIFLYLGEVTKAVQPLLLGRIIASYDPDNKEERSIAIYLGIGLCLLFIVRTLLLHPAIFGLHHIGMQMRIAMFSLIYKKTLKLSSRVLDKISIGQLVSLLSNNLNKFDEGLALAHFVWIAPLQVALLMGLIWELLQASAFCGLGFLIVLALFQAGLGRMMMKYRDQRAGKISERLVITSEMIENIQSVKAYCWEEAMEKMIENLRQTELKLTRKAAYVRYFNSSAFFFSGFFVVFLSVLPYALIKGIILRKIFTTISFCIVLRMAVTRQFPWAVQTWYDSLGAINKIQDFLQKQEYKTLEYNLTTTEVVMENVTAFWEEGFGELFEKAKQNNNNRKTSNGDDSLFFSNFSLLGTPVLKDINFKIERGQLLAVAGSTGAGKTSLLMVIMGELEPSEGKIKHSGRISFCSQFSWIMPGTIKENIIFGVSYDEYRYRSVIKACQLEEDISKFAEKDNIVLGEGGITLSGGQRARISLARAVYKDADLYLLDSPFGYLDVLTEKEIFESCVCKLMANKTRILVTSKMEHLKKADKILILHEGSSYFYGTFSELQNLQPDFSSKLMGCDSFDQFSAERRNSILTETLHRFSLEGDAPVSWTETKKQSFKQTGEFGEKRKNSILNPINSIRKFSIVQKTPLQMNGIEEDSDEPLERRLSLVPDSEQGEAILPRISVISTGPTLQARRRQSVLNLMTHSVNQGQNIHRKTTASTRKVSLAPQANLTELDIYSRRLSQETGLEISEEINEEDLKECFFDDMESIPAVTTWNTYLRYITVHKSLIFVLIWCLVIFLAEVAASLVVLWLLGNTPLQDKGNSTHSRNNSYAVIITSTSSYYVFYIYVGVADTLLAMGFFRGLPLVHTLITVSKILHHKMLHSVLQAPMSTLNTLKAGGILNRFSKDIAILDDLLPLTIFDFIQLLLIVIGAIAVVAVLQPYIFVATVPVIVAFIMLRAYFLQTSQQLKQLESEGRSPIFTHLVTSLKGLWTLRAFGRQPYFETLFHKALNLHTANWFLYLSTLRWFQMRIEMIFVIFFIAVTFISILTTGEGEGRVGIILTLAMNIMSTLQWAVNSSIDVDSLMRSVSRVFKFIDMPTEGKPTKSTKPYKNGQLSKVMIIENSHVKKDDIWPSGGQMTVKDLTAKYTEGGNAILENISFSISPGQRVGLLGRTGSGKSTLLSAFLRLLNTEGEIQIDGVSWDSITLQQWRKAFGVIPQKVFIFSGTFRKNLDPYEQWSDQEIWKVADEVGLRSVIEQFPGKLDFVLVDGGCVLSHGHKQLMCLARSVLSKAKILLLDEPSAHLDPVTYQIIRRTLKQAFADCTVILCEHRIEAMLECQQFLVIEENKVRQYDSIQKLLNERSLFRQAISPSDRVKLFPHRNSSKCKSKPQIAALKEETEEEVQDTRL

With CFTRInh-172, the “AIsc (change in short circuit current)” value in assay [1] was −0.8 pA/cm2; in assay [2] it was −43.2±2.5 pA/cm2.
For the substance “IL-13: inflammatory Th-2 cytokine in asthma that can induce mucus metaplasia”, in assay [3] (10 ng/ml IL-13 added on day 10 of ALI differentiation, 10 days, vs untreated, p=0.002), the “fold increase in numbers of MUC5AC+ cells” value is recorded as 1.75 fold. For the same substance, in assay [3] (setting [4]), the MUC5B expression result is reported as “decrease” and the “expression of goblet cell transcriptional regulator SPDEF” value is reported as “increased expression”.
